From patent US4889871A, “Alkoxy-substituted dihydrobenzopyran-2-carboxylate derivatives” (G. D. Searle & Co., priority 1988, dated 1989)

Test system: human neutrophils
Assay: Human neutrophil degranulation assay (LTB4-induced, myeloperoxidase release)
Format: cell-based
Settings: Table 1, LTB4 (5×10^-8 M)
Protocol: Neutrophils were purified from venous blood of normal human donors using standard techniques of dextran sedimentation, centrifugation on Ficoll-paque® (Pharmacia) or Histopaque® sterile solution (Sigma) and hypotonic lysis of erythrocytes (Boyum, A., Isolation of Leukocytes From Human Blood: Further Observations. Scand. J. Lab. Clin. Invest., 21 (Suppl. 97): 31, 1968). The purity of isolated neutrophils was >95%.
Neutrophil degranulation was determined by measuring the release of myeloperoxidase activity into the incubation medium. Neutrophils (3×10^6) in 1 ml HBSS solution were preincubated with cytochalasin B (5 μg) at 37° C. for 5 minutes, followed by preincubation with test compounds for 7 minutes. Neutrophils were then incubated for 2 to 20 minutes with either LTB4 (5×10^-8 M) or the chemotactic peptide f-met-leu-phe (5×10^-6 M) to induce degranulation. Following incubation, samples were centrifuged and myeloperoxidase was extracted from the cell pellets by sonication in phosphate buffer containing 0.4% Triton X-100. Triton X-100 was also added to the supernatants to a concentration of 0.4%. The supernatants and the pellet - extracts were then assayed spectrophotometrically for myeloperoxidase activity by determining the rate of decomposition of H2 O2 with o-dianisidine as hydrogen donor as described by Renlund, et al. (Renlund, D. G., MacFarlane, J. L., Christensen, R. D., Lynch, R. E., and Rothstein, G., A Quantitative And Sensitive Method For Measurement Of Myeloperoxidase, Clinical Research 28:75A, 1980). Myeloperoxidase activity released into the supernatant was expressed as the percent of the average total activity (pellet plus supernatant).

## CCCc1c(OCCCOc2ccc(C(C)=O)c(OC)c2CCC)ccc2c1OC(C(=O)O)CC2 (stereo not shown) [Example 1, 7-[3-(4-acetyl-3-methoxy-2-propylphenoxy)propoxy]-3,4-dihydro-8-propyl-2H-1-benzopyran-2-carboxylic acid]
  IC50: 1500 nM
